Data as given in ChEMBL document CHEMBL1138027, “Dimethoxybenzo[i]phenanthridine-12-carboxylic acid derivatives and 6H-dibenzo[c,h][2,6]naphthyridin-5-ones with potent topoisomerase I-targeting activity and cytotoxicity” (Bioorg Med Chem Lett, 2004).
pIC50: −log10 of the molar value.

Legend:
KB 3-1 [1] = test: Concentration required to inhibit cell proliferation by 50% in KB3-1 tumor cell line; type: functional, cell-based; conditions: Homo sapiens
[2] = target: T1, DNA topoisomerase 1 (Homo sapiens) (UniProt P11387); test: Relative effective concentration to cleave plasmid DNA with human topoisomerase I; compared to camptothecin=1
T1 sequence (whole entry): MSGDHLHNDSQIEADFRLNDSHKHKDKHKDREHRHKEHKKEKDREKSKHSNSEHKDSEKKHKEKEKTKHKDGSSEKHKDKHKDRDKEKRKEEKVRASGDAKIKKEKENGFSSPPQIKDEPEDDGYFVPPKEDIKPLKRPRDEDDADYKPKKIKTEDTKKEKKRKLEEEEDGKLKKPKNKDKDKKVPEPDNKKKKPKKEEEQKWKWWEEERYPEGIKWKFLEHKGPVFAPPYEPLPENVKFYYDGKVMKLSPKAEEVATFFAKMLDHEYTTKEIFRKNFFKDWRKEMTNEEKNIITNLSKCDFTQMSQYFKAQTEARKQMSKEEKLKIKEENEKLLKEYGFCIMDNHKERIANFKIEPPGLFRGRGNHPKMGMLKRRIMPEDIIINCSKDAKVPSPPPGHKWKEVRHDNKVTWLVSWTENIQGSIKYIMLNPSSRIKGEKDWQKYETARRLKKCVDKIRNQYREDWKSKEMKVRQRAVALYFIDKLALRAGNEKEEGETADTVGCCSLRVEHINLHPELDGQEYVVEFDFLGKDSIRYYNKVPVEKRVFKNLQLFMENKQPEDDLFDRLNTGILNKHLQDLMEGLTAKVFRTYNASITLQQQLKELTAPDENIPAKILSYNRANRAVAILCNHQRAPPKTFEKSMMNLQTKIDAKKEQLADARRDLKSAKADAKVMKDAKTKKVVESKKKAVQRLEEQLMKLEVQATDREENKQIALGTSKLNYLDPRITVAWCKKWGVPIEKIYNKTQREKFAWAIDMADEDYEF

KB 3-1 [3] = test: Concentration required to inhibit cell proliferation by 50% in KBH5.0 tumor cell line; overexpress BCRP; type: functional, cell-based; conditions: Homo sapiens
RPMI 8402 [4] = test: Concentration required to inhibit cell proliferation in CPT-K5 tumor cell line; camptothecin resistant; type: functional, cell-based; conditions: Homo sapiens
[5] = Concentration required to inhibit cell proliferation by 50% in P388/CPT-45 tumor cell line; camptothecin resistant; type: functional; conditions: Mus musculus, P388CPT45
KB [6] = test: Concentration required to inhibit cell proliferation by 50% in KBV-1 tumor cell line; overexpress MDR1; type: functional, cell-based; conditions: Homo sapiens
RPMI 8402 [7] = test: Concentration required to inhibit cell proliferation in […] tumor cell line; type: functional, cell-based; conditions: Homo sapiens
P388 = test: Concentration required to inhibit cell proliferation in P388 tumor cell line; type: functional, cell-based; conditions: Mus musculus
[8] = Concentration required to inhibit cell proliferation in P388/CPT-45 tumor cell line; camptothecin resistant; type: functional; conditions: Mus musculus, P388CPT45
KB [9] = test: Concentration required to inhibit cell proliferation in KBV-1 tumor cell line; overexpress MDR1; type: functional, cell-based; conditions: Homo sapiens
KB 3-1 [10] = test: Concentration required to inhibit cell proliferation in KBH5.0 tumor cell line; overexpress BCRP; type: functional, cell-based; conditions: Homo sapiens
KB 3-1 [11] = test: Concentration required to inhibit cell proliferation in KB3-1 tumor cell line; type: functional, cell-based; conditions: Homo sapiens

Row | Structure (SMILES) | pIC50 (KB 3-1 [1]) | REC [2] | pIC50 (KB 3-1 [3]) | pIC50 (RPMI 8402 [4]) | pIC50 [5] | pIC50 (KB [6]) | pIC50 (RPMI 8402 [7]) | pIC50 (P388) | pIC50 [8] | pIC50 (KB [9]) | pIC50 (KB 3-1 [10]) | pIC50 (KB 3-1 [11])
1 | COc1cc2c(C(=O)NCCN(C)C)cc3c4cc5c(cc4ncc3c2cc1OC)OCO5 | 9.00 | 0.5 | 7.52 | 6.00 | 6.59 | 7.00 | 8.52 | 8.70 | – | – | – | –
2 | COc1cc2c(=O)n(CCN(C)C)c3c4cc5c(cc4ncc3c2cc1OC)OCO5 | – | – | – | 6.05 | – | – | – | 9.00 | 6.64 | 8.30 | 8.22 | 8.30
3 | COc1cc2c3cnc4cc5c(cc4c3c(=O)n(CCN3CCCCC3)c2cc1OC)OCO5 | – | 0.1 | – | 5.82 | – | – | 9.00 | 8.52 | 6.64 | 8.22 | 8.15 | 8.22
4 | COc1cc2c(C(=O)OCCN(C)C)cc3c4cc5c(cc4ncc3c2cc1OC)OCO5 | 7.52 | 5 | 7.15 | 6.14 | 7.70 | 6.66 | 7.52 | 8.00 | – | – | – | –
5 | COc1cc2c(C(=O)NCCCN(C)C)cc3c4cc5c(cc4ncc3c2cc1OC)OCO5 | 7.40 | 30 | 6.30 | 5.69 | 6.47 | 5.35 | 7.30 | 7.52 | – | – | – | –
6 | COc1cc2c3cnc4cc5c(cc4c3c(=O)n(CCN(C)C)c2cc1OC)OCO5 | 8.70 | 3 | 8.40 | 6.68 | 6.70 | 8.40 | 9.15 | 8.70 | – | – | – | –
7 | COc1cc2c3cnc4cc5c(cc4c3c(=O)n(CCCN(C)C)c2cc1OC)OCO5 | – | 3 | – | 6.70 | – | – | 9.30 | 8.52 | 7.70 | 8.15 | 8.40 | 8.52
8 | CC[C@@]1(O)C(=O)OCc2c1cc1n(c2=O)Cc2cc3ccccc3nc2-1 [CAMPTOTHECIN] | – | 1 | – | < 5.00 | – | – | 8.22 | 8.00 | < 5.00 | 7.70 | 7.70 | 8.00
9 | CC[C@@]1(O)C(=O)OCc2c1cc1n(c2=O)Cc2cc3c(CN(C)C)c(O)ccc3nc2-1 [TOPOTECAN] | – | 5 | – | < 5.00 | – | – | 7.70 | 7.40 | < 5.00 | 6.36 | 6.36 | 7.40
10 | CCN(CC)CCn1c(=O)c2c3cc4c(cc3ncc2c2cc(OC)c(OC)cc21)OCO4 | – | 0.7 | – | 6.05 | – | – | 8.52 | 8.52 | 7.52 | 8.00 | 8.30 | 8.52
11 | CCOC(=O)c1cc2c3cc4c(cc3ncc2c2cc(OC)c(OC)cc12)OCO4 | 7.40 | 12 | 6.96 | < 5.00 | 5.49 | 6.47 | 7.10 | 7.40 | – | – | – | –
12 | COc1cc2c(C(=O)OCCCN(C)C)cc3c4cc5c(cc4ncc3c2cc1OC)OCO5 | 6.30 | 7 | 6.22 | 5.82 | 6.85 | 5.70 | 6.66 | 6.96 | – | – | – | –
